According to patent publication US20240316202A1, “NOVEL PHOTOSENSITIZER” (The University of Tokyo, priority 2020, published 2024):

Experiments:
[1] = Optical characteristics (UV-Vis absorption and fluorescence spectroscopy); format: physicochemical; conditions: physiological conditions
Protocol: UV-visible spectra were obtained with Shimadzu UV-1800. A fluorescence spectroscopic test was performed with Hitachi F7000.
The slit width in the fluorescence measurement was 1 nm for both excitation and light emission. The photomultiplier tube voltage was 400 V. The area under the light emission spectrum of the test sample and the spectral area of the standard sample were determined and calculated by the following equation to determine a relative fluorescence quantum yield (Φfl).
The optical characteristics of the probe (1 μM) were examined in a 0.1 M sodium phosphate buffer containing 0.1% DMSO as a co-solvent.
Therefore, it is expected that HMRIef in which iodine is introduced into the xanthene ring site of HMRef is also placed in the same equilibrium. […] In addition, a fluorescence spectrum was also measured. […]
FIG. 3(a) illustrates the chemical structure and optical characteristics of HMRIef. FIG. 3(b) illustrates the measurement results of the absorption spectrum and fluorescence spectrum of HMRIef (measurement was performed in a 0.1 M sodium phosphate buffer containing 0.1% DMSO as a co-solvent. dye concentration: 1 μM (absorption) or 10 μM (fluorescence)). FIG. 3(c) illustrates the measurement results of the absorption spectra measured in 0.1 M sodium phosphate buffers with various pH containing 0.1% DMSO as a co-solvent (dye concentration: 1 μM). […]

[2] = Detection of singlet oxygen by near infrared spectroscopy; format: physicochemical; conditions: PBS pH 7.4, 0.1% DMSO, dye 1 μM, 508 nm excitation; mean±S.D.
Protocol: Singlet oxygen was detected by measuring ^1O2 light emission near 1,270 nm by laser irradiation using a near infrared emission spectrometer (Fluorolog-3, Horiba, Japan). A dye was dissolved in phosphate buffered saline (PBS) containing 0.1% DMSO as a co-solvent and irradiation was performed with light at a wavelength of 508 nm. In order to calculate a ^1O2 quantum yield, the light emission signal was integrated for each wavelength for 7 seconds. A singlet oxygen generation quantum yield was calculated using Rose bengal (0.75) (DeRosa, M. C. & Crutchley, R. J. Photosensitized singlet oxygen and its applications. Coordination Chemistry Reviews 233-234, 351-371, doi:10.1016/S0010-8545(02)00034-6 (2002)) in PBS as a reference.
Whether HMRIef had photosensitizing ability was examined. In the examination, the singlet oxygen generation ability was evaluated by the light emission intensity at […] under light irradiation conditions using the property that singlet oxygen (^1O2) generated by energy transfer from the photoexcited probe to oxygen molecules emits near-infrared light having a peak top near 1,270 nm.
The right view of FIG. 6 illustrates the light emission spectrum of ^1O2 by 508 nm laser excitation. The dashed line was taken as the background. The spectra were measured in PBS with pH 7.4 containing 0.1% DMSO as a co-solvent (dye concentration: 1 μM). […]

[3] = in PBS, used as reference; cited from earlier work

Row | Structure (SMILES) | fluorescence quantum yield (Φfl) [1] | singlet oxygen generation quantum yield [2] | singlet oxygen generation quantum yield (reference value) [3]
1 | O=c1ccc2c(-c3ccccc3CO)c3ccc(NCC(F)(F)F)cc3oc-2c1 [HMRef] | 0.78 | 0.05±0.14 | 
2 | O=C([O-])c1c(Cl)c(Cl)c(Cl)c(Cl)c1-c1c2cc(I)c(=O)c(I)c-2oc2c(I)c([O-])c(I)cc12.[Na+].[Na+] [Rose bengal] |  |  | 0.75
